Data set [1] is described as follows: Activity at gamma-secretase expressed in human SH-SY5Y cells assessed as inhibition of amyloid beta 40 production by HTRF immunoassay. It counts as cell-based. A general note: In TR-FRET formats the signal depends on donor and acceptor labels being close together.
Data set [2] can be described thus: Activity at gamma-secretase expressed in human SH-SY5Y cells assessed as inhibition of amyloid beta 42 production by HTRF immunoassay. The class given is cell-based.
Data set [3] deals with Gamma-secretase (Homo sapiens) (UniProt Q96BI3+Q9NZ42+Q8WW43+P49768+Q92542+P49810). The data set can be described thus: Selectivity ratio, IC50 for human gamma-secretase-mediated Notch deltaE cleavage to IC50 for gamma-secretase-mediated amyloid beta 42 production. It counts as protein-complex assay.
A short description of data set [4]: Drug level in APP-YAC transgenic mouse brain at 100 mg/kg, po after 6 hrs. The note with it: read-out: Drug uptake. Further details: dose 100 mg/kg, route oral. It counts as ADME, organism-based.
Another data set concerns Mus musculus. The data set can be described thus: Inhibition of Abeta42 production in APP-YAC transgenic mouse brain at 100 mg/kg, po after 6 hrs. The note with it: read-out: INH. The class given is functional.
Data set [5] is described as follows: Drug level in APP-YAC transgenic mouse plasma at 100 mg/kg, po after 6 hrs. It counts as ADME, organism-based. On the set-up: dose 100 mg/kg, route oral. The note with it: read-out: Drug uptake.
A further data set deals with Gamma-secretase. The data set can be described thus: Inhibition of gamma-secretase-mediated Notch deltaE cleavage in human HeLa cells by luciferase assay. The class given is cell-based.

What is called IC50 is the concentration that inhibits the measured activity by half. Consider `COc1ccc(N2CCN(c3nc(Nc4cc(C(C)(C)C)ccc4C)cc(OC)n3)CC2(C)C)cc1`, for which the figures for the IC50 in data set [1] and in data set [2] were 5700 nM and 260 nM, respectively.
On the same counts, the results for `COc1ccc(N2CCN(c3nc(Nc4cc(C(C)(C)C)ccc4C)c4c(ncn4C(C)C)n3)CC2(C)C)cc1` are 350 nM and 50 nM.
For the compound `COCCCCN1CCN(c2nc(Nc3cc(C(C)(C)C)ccc3C)c3c(ncn3C)n2)CC1`, the IC50 is 4700 nM in data set [1] and 870 nM in data set [2].
On the same counts, the results for `Cc1ccc(C(C)(C)C)cc1Nc1nc(NCCc2ccncc2)nc2ncn(C)c12` are 250 nM and 36 nM.
On the same counts, the results for `COc1ccc(N2CCN(c3nc(Nc4cc(C(C)(C)C)ccc4C)c4[nH]cnc4n3)CC2(C)C)cc1` are 1000 nM and 68 nM.
For `COc1ccc(N2CCN(c3nc(Nc4cc(C(C)(C)C)ccc4C)c4c(ncn4C)n3)CC2(C)C)cc1`, the results for the IC50 (in data set [1]; in data set [2]; on Gamma-secretase) were 350 nM, 21 nM and more than 50000 nM, respectively. Also, the Ratio IC50 in data set [3] is more than 2400. In addition, the concentration at 6 h in data set [4] worked out at 7.8 µM; in data set [5], 23 µM. Also, in the data set with Mus musculus, the inhibition in vivo at 100 mg/kg was found to be 73%.
As for `COc1ccc(N2CCCN(c3nc(Nc4cc(C(C)(C)C)ccc4C)c4c(ncn4C)n3)CC2)cc1`, the values for the IC50 in data set [1] and in data set [2] were 4100 nM and 380 nM, respectively.
On the same counts, the results for `Cc1ccc(C(C)(C)C)cc1Nc1nc(N2CCC(n3ccnc3)CC2)nc2ncn(C)c12` are 1600 nM and 340 nM.
Consider `COc1ccc(N2CCN(c3nc(Nc4cc(C(C)(C)C)ccc4C)c4c(ncn4CC(F)(F)F)n3)CC2(C)C)cc1`, for which the results for the IC50 in data set [1] and in data set [2] were 420 nM and 55 nM, respectively.
As for `COc1ccc(N2CCN(c3nc(Nc4cc(C(C)(C)C)ccc4C)c4c(n3)nc(C(F)(F)F)n4C)CC2(C)C)cc1`, the IC50 was 1000 nM in data set [1], 50 nM in data set [2] and more than 50000 nM against Gamma-secretase. Moreover, in data set [3], the Ratio IC50 was more than 1000.
As to `COc1ccc(N2CCN(c3nc(Nc4cc(C(C)(C)C)ccc4C)c4[nH]ccc4n3)CC2(C)C)cc1`, the IC50 in data set [1] was found to be 3000 nM; in data set [2], 750 nM.
`COc1ccc(N2CCN(c3nc(Nc4cc(C(C)(C)C)ccc4C)c4c(ncn4C)n3)CC2)cc1`: the IC50 in data set [1] was 730 nM; in data set [2], 39 nM; against Gamma-secretase it was more than 50000 nM. In addition, the Ratio IC50 in data set [3] is more than 1300.
`Cc1ccc(C(C)(C)C)cc1Nc1nc(-c2ccc(Cc3ccncc3)cc2)nc2ncn(C)c12`: the half-maximal inhibitory concentration (IC50) in data set [1] turned out to be 1100 nM; in data set [2], 800 nM.
For the compound `COc1ccc(N2CCN(c3nc(Nc4cc(C(C)(C)C)ccc4C)c4c(n3)nc(C)n4C)CC2(C)C)cc1`, the IC50 in data set [1] came out at 160 nM; in data set [2] it was 22 nM; on Gamma-secretase it was 9200 nM. Besides, the Ratio IC50 in data set [3] was 420.
`Cc1ccc(C(C)(C)C)cc1Nc1nc(N2CCN(CC3CCOCC3)CC2)nc2ncn(C)c12`: the IC50 in data set [1] amounted to 8000 nM; in data set [2], 910 nM.
As to `Cc1ccc(C(C)(C)C)cc1Nc1nc(N2CCC(Oc3ccncc3)CC2)nc2ncn(C)c12`, the IC50 in data set [1] was found to be 57 nM; in data set [2], 9.4 nM.
On the same counts, the results for `COc1ccc(NCCNc2nc(Nc3cc(C(C)(C)C)ccc3C)c3c(ncn3C)n2)cc1` are 1100 nM and 500 nM.
On the same counts, the results for `COc1ccc(N2CCN(c3nc(Nc4cc(C(C)(C)C)ccc4C)c4c(ncn4C)n3)CC2(C)C)cc1F` are 270 nM and 21 nM.
Regarding `Cc1ccc(C(C)(C)C)cc1Nc1nc(NCCc2cnn(C)c2)nc2ncn(C)c12`, the IC50 in data set [1] was found to be 400 nM; in data set [2], 67 nM; at Gamma-secretase, 22000 nM. In addition, the Ratio IC50 in data set [3] was 330.
Take `Cc1cc(OC2CCN(c3nc(Nc4cc(C(C)(C)C)ccc4C)c4c(ncn4C)n3)CC2)ncn1`: the IC50 in data set [1] was 120 nM; in data set [2] it was 16 nM; on Gamma-secretase, 13000 nM. The Ratio IC50 in data set [3] came out at 810. In addition, the concentration at 6 h in data set [4] came to 7.8 µM; in data set [5], 27 µM. Besides, the inhibition in vivo at 100 mg/kg with Mus musculus stood at 69%.
Consider `COc1ccc(N2CCN(c3nc(Nc4cc(C(C)(C)C)ccc4C)c4cccnc4n3)CC2(C)C)cc1`, for which the IC50 in data set [1] was determined as 3100 nM; in data set [2], 210 nM.
On the same counts, the results for `COc1ccc(N2CCN(c3nc(Nc4cc(C(C)(C)C)ccc4C)c4ncn(C)c4n3)CC2(C)C)cc1` are 2600 nM and 130 nM.
On the same counts, the results for `Cc1ccc(C(C)(C)C)cc1Nc1nc(N2CCC(c3ccccc3)C2)nc2ncn(C)c12` (centres undefined) are 630 nM and 54 nM.
For `Cc1ccc(C(C)(C)C)cc1Nc1nc(N2CCC(c3ccncc3)CC2)nc2ncn(C)c12`, the IC50 in data set [1] was found to be 1800 nM; in data set [2], 350 nM.
Consider `Cc1ccc(C(C)(C)C)cc1Nc1nc(N2CCN(Cc3ccncc3)CC2)nc2ncn(C)c12`, for which the IC50 is 130 nM in data set [1], 12 nM in data set [2] and 9100 nM on Gamma-secretase. Further, in data set [3], the Ratio IC50 is 760.
Turning to `Cc1ccc(C(C)(C)C)cc1Nc1nc(N2CCC(Cc3ccncc3)CC2)nc2ncn(C)c12`, the concentration for half-maximal inhibition (IC50) in data set [1] was 310 nM; in data set [2] it was 30 nM.
Consider `CCc1ccc(N2CCN(c3nc(Nc4cc(C(C)(C)C)ccc4C)c4c(ncn4C)n3)CC2)cc1`, for which the IC50 was determined as 3900 nM in data set [1] and 810 nM in data set [2].
